Assay results reported in US8716312B2, “Inhibitors of diacylglycerol acyltransferase” (Merck Sharp & Dohme Corporation, priority 2008, dated 2014).

target: T1, human DGAT1 enzyme (Homo sapiens, UniProt O75907); assay: in vitro DGAT1 inhibition assay (microsomes, [14C]-palmitoyl-CoA, SPA beads)
T1 sequence (O75907 1-488): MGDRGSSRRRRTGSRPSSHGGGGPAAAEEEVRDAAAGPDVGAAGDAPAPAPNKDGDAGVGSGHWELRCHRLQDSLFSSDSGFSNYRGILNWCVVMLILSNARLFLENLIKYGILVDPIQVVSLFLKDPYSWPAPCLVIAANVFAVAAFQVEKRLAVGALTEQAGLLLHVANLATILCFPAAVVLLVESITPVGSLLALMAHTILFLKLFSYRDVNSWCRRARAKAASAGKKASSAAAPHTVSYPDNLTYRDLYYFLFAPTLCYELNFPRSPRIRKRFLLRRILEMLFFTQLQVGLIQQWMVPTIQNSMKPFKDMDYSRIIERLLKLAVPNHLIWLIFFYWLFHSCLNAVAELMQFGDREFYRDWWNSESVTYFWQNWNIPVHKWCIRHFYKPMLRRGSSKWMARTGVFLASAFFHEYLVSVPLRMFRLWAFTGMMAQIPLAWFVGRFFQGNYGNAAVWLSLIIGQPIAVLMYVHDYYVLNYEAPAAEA
Protocol: The in vitro assay to identify DGAT1 inhibitors uses human DGAT1 enzyme expressed in Sf9 insect cells prepared as microsomes. The reaction is initiated by the addition of the combined substrates 1,2-dioleoyl-sn-glycerol and [^14C]-palmitoyl-Co A and incubated with test compounds and microsomal membranes for 2 hours at room temperature. The assay is stopped by adding 0.5 mg wheat germ agglutinin beads in assay buffer with 1% Brij-35 and 1% 3-cholamidopropyldimethyl-ammonio-1-propane sulfonate. Plates are sealed with TopSeal and incubated for 18 hours to allow the radioactive triglyceride product to come into proximity with the bead. Plates are read on a TopCount instrument.
Percent inhibition was calculated as the percent of (test compound inhibition minus non-specific binding) relative to (total binding minus non-specific binding). IC50 values were determined by curve fitting the data to a Sigmoidal dose-response in GraphPad Prism utilizing the following equation: Y=A+(B−A)/(1+10^((Log IC50−X))), where A and B are the bottom and top of the curve (highest and lowest inhibition), respectively, and X is the logarithm of concentration.

Compound	IC50 [µM]
O=C(Nc1ccc(N2CCN(C(=S)Nc3ccccc3F)CC2)nc1)c1oc(N2CCC(c3ccccc3)CC2)nc1C(F)(F)F [Compound 181, N-(6-(4-(2-fluorophenylcarbamothioyl)piperazin-1-yl)pyridin-3-yl)-2-(4-phenylpiperidin-1-yl)-4-(trifluoromethyl)oxazole-5-carboxamide]	0.011 to 0.1
CC1CCCN(c2nc(C(F)(F)F)c(C(=O)Nc3ccc(N4CCCN(C(=O)[C@H]5CC[C@@H](C(=O)O)CC5)CC4)nc3)o2)C1 (some centres unmarked) [Compound 185, (1s,4s)-4-(4-(5-(2-(3-Methylpiperidin-1-yl)-4-(trifluoromethyl)oxazole-5-carboxamido)pyridin-2-yl)-1,4-diazepane-1-carbonyl)cyclohexanecarboxylic acid]	0.101 to 0.5
O=C(Nc1ccc(N2CCN(C(=O)Cc3ccccc3F)CC2)nc1)c1oc(N2CCC(c3ccccc3)CC2)nc1C(F)(F)F [Compound 225]	0.011 to 0.1
CC1CCCN(c2nc(C(F)(F)F)c(C(=O)Nc3ccc(N4CC(NC(=O)Nc5ccccc5F)C4)nc3)o2)C1 (centres unmarked) [Compound 221, N-(6-(3-(3-(2-fluorophenyl)ureido)azetidin-1-yl)pyridin-3-yl)-2-(3-methylpiperidin-1-yl)-4-(trifluoromethyl)oxazole-5-carboxamide]	0.101 to 0.5
O=C(Nc1ccc(N2CCN(C(=O)C(O)C(F)(F)F)CC2)nc1)c1oc(N2CCC(c3cccc(Cl)c3)C2)nc1C(F)(F)F (centres unmarked) [Compound 212, 2-(3-(3-chlorophenyl)pyrrolidin-1-yl)-N-(6-(4-(3,3,3-trifluoro-2-hydroxypropanoyl)piperazin-1-yl)pyridin-3-yl)-4-(trifluoromethyl)oxazole-5-carboxamide]	0.011 to 0.1
O=C(Nc1ccc(N2CCN(c3nc4ccccc4o3)CC2)nc1)c1oc(N2CCC(c3ccccc3)CC2)nc1C(F)(F)F [Compound 236]	0.101 to 0.5
O=C(Nc1ccc(N2CCN(C(=O)[C@H](O)C3CCCCC3)CC2)nc1)c1oc(N2CCC(c3cccc(Cl)c3)C2)nc1C(F)(F)F (stereo partly drawn) [Compound 213, N-(6-(4-((R)-2-cyclohexyl-2-hydroxyacetyl)piperazin-1-yl)pyridin-3-yl)-2-(3-(3-chlorophenyl)pyrrolidin-1-yl)-4-(trifluoromethyl)oxazole-5-carboxamide]	0.011 to 0.1
O=C(O)c1cccc(COC2CCN(c3ccc(NC(=O)c4oc(N5CCC(c6ccccc6)CC5)nc4C(F)(F)F)cn3)CC2)c1 [Compound 256, 3-((1-(5-(2-(4-phenylpiperidin-1-yl)-4-(trifluoromethyl)oxazole-5-carboxamido)pyridin-2-yl)piperidin-4-yloxy)methyl)benzoic acid]	0.011 to 0.1
O=C(Nc1ccc(N2CCN(C(=O)[C@H](O)c3ccccc3)CC2)nc1)c1oc(N2CCC(c3ccccc3)CC2)nc1C(F)(F)F [Compound 200, (R)—N-(6-(4-(2-hydroxy-2-phenylacetyl)piperazin-1-yl)pyridin-3-yl)-2-(4-phenylpiperidin-1-yl)-4-(trifluoromethyl)oxazole-5-carboxamide]	0.011 to 0.1
O=C(Nc1ccc(N2CCN(C(=O)C3CCc4ccccc4N3)CC2)nc1)c1oc(N2CCC(c3ccccc3)CC2)nc1C(F)(F)F (centres unmarked) [Compound 241, 2-(4-phenylpiperidin-1-yl)-N-(6-(4-(1,2,3,4-tetrahydroquinoline-2-carbonyl)piperazin-1-yl)pyridin-3-yl)-4-(trifluoromethyl)oxazole-5-carboxamide]	0.101 to 0.5
O=C(Nc1ccc(N2CCN(c3nc4ccccc4[nH]3)CC2)nc1)c1oc(N2CCC(c3ccccc3)CC2)nc1C(F)(F)F [Compound 237, N-(6-(4-(1H-benzo[d]imidazol-2-yl)piperazin-1-yl)pyridin-3-yl)-2-(4-phenylpiperidin-1-yl)-4-(trifluoromethyl)oxazole-5-carboxamide]	0.101 to 0.5
CC1CCCN(c2nc(C(F)(F)F)c(C(=O)Nc3ccc(N4CCc5c(cccc5Nc5ccccc5F)C4)nc3)o2)C1 (centres unmarked) [Compound 174, N-(6-(5-(2-fluorophenylamino)-3,4-dihydroisoquinolin-2(1H)-yl)pyridin-3-yl)-2-(3-methylpiperidin-1-yl)-4-(trifluoromethyl)oxazole-5-carboxamide]	0.101 to 0.5
CC1CCCN(c2nc(C(F)(F)F)c(C(=O)Nc3ccc(N4CCCN(C(=O)C(O)C(F)(F)F)CC4)nc3)o2)C1 (centres unmarked) [Compound 191, 2-(3-methylpiperidin-1-yl)-N-(6-(4-(3,3,3-trifluoro-2-hydroxypropanoyl)-1,4-diazepan-1-yl)pyridin-3-yl)-4-(trifluoromethyl)oxazole-5-carboxamide]	0.101 to 0.5
O=C(O)c1ccc(F)c(OCC2CCN(c3ccc(NC(=O)c4oc(N5CCC(c6ccccc6)CC5)nc4C(F)(F)F)cn3)CC2)c1 [Compound 268, 4-fluoro-3-((1-(5-(2-(4-phenylpiperidin-1-yl)-4-(trifluoromethyl)oxazole-5-carboxamido)pyridin-2-yl)piperidin-4-yl)methoxy)benzoic acid]	0.011 to 0.1
O=C(Nc1ccc(N2CCN(C(=O)[C@H](O)c3ccccc3)CC2)nc1)c1oc(N2CCC(c3cccc(Cl)c3)C2)nc1C(F)(F)F (stereo partly drawn) [Compound 207, 2-(3-(3-chlorophenyl)pyrrolidin-1-yl)-N-(6-(4-((R)-2-hydroxy-2-phenylacetyl)piperazin-1-yl)pyridin-3-yl)-4-(trifluoromethyl)oxazole-5-carboxamide]	0.011 to 0.1
CC1CCCN(c2nc(C(F)(F)F)c(C(=O)Nc3ccc(N4CCN(C(=O)[C@H](O)c5ccccc5)CC4)nc3)o2)C1 (stereo partly drawn) [Compound 198, N-(6-(4-((R)-2-hydroxy-2-phenylacetyl)piperazin-1-yl)pyridin-3-yl)-2-(3-methylpiperidin-1-yl)-4-(trifluoromethyl)oxazole-5-carboxamide]	0.011 to 0.1
CC1CCCN(c2nc(C(F)(F)F)c(C(=O)Nc3ccc(NC4CN(C(=O)Nc5ccccc5F)C4)nc3)o2)C1 (centres unmarked) [Compound 223, N-(6-(1-(2-fluorophenylcarbamoyl)azetidin-3-ylamino)pyridin-3-yl)-2-(3-methylpiperidin-1-yl)-4-(trifluoromethyl)oxazole-5-carboxamide]	0.101 to 0.5
O=C(Nc1ccc(N2CCN(C(=O)C3Cc4ccccc4N3)CC2)nc1)c1oc(N2CCC(c3ccccc3)CC2)nc1C(F)(F)F (centres unmarked) [Compound 240, N-(6-(4-(indoline-2-carbonyl)piperazin-1-yl)pyridin-3-yl)-2-(4-phenylpiperidin-1-yl)-4-(trifluoromethyl)oxazole-5-carboxamide]	0.101 to 0.5
O=C(Nc1ccc(N2CCN(C(=O)Nc3ccccc3F)C(=O)C2)nc1)c1oc(N2CCC(c3ccccc3)CC2)nc1C(F)(F)F [Compound 248, N-(6-(4-(2-fluorophenylcarbamoyl)-3-oxopiperazin-1-yl)pyridin-3-yl)-2-(4-phenylpiperidin-1-yl)-4-(trifluoromethyl)oxazole-5-carboxamide]	0.101 to 0.5
O=C(O)c1ccccc1OCC1CCN(c2ccc(NC(=O)c3oc(N4CCC(c5ccccc5)CC4)nc3C(F)(F)F)cn2)CC1 [Compound 266, 2-((1-(5-(2-(4-phenylpiperidin-1-yl)-4-(trifluoromethyl)oxazole-5-carboxamido)pyridin-2-yl)piperidin-4-yl)methoxy)benzoic acid]	0.101 to 0.5
O=C(Nc1ccc(N2CCN(C(=O)Cc3ccccc3O)CC2)nc1)c1oc(N2CCC(c3ccccc3)CC2)nc1C(F)(F)F [Compound 226, N-(6-(4-(2-(2-hydroxyphenyl)acetyl)piperazin-1-yl)pyridin-3-yl)-2-(4-phenylpiperidin-1-yl)-4-(trifluoromethyl)oxazole-5-carboxamide]	0.101 to 0.5
Cc1cccc(Cl)c1NC(=O)N1CCCN(c2ccc(NC(=O)c3oc(N4CCCC(C)C4)nc3C(F)(F)F)cn2)CC1 (centres unmarked) [Compound 215, N-(2-chloro-6-methylphenyl)hexahydro-4-[5-[[[2-(3-methyl-1-piperidinyl)-4-(trifluoromethyl)-5-oxazolyl]carbonyl]amino]-2-pyridinyl]-1H-1,4-diazepine-1-carboxamide]	0.011 to 0.1
CC1CCCN(c2nc(C(F)(F)F)c(C(=O)Nc3ccc(N4CCN(c5ccccc5O)CC4)nc3)o2)C1 (centres unmarked) [Compound 171, N-(6-(4-(2-hydroxyphenyl)piperazin-1-yl)pyridin-3-yl)-2-(3-methylpiperidin-1-yl)-4-(trifluoromethyl)oxazole-5-carboxamide]	0.011 to 0.1
CC1CCCN(c2nc(C(F)(F)F)c(C(=O)Nc3ccc(N4CCCN(C(=O)c5cccc(C(=O)O)c5)CC4)nc3)o2)C1 (centres unmarked) [Compound 190, 3-(4-(5-(2-(3-methylpiperidin-1-yl)-4-(trifluoromethyl)oxazole-5-carboxamido)pyridin-2-yl)-1,4-diazepane-1-carbonyl)benzoic acid]	0.101 to 0.5
CC1CCCN(c2nc(C(F)(F)F)c(C(=O)Nc3ccc(N4CCN(C(=O)[C@H](O)C5CCCCC5)CC4)nc3)o2)C1 (stereo partly drawn) [Compound 196, N-(6-(4-((R)-2-cyclohexyl-2-hydroxyacetyl)piperazin-1-yl)pyridin-3-yl)-2-(3-methylpiperidin-1-yl)-4-(trifluoromethyl)oxazole-5-carboxamide]	0.011 to 0.1
CC1CCCN(c2nc(C(F)(F)F)c(C(=O)Nc3ccc(N4CCN(c5ccccc5F)CC4)nc3)o2)C1 (centres unmarked) [Compound 164, N-(6-(4-(2-fluorophenyl)piperazin-1-yl)pyridin-3-yl)-2-(3-methylpiperidin-1-yl)-4-(trifluoromethyl)oxazole-5-carboxamide]	0.011 to 0.1
